# Source: patent US5489582A, “14-deoxy-14α-cardenolides 3β-thioderivatives and pharmaceutical composition comprising same for treating cardiovascular disorders” (Sigma-Tau Industrie Farmaceutiche Riuntie S.p.A, priority 1992, dated 1996)
# Structures can show the parent of a compound that is named as a salt.
# Columns and labels:
# Na^+,K^+ -ATPase [1] = molecular target: T1, Na^+,K^+ -ATPase (Homo sapiens, UniProt P05023); experiment: displacement of the specific 3H-ouabain binding from the purified Na+,K+-ATPase receptor
# T1 construct: Na^+,K^+ -ATPase receptor purified according to Jorghensen; from tissue
# From the text: (§1) To test the affinity for the receptor site of the Na^+,K^+ -ATPase and the agonist or inhibitory activity on the enzyme, the following tests were used: a) displacement of the specific 3H-ouabain binding from the Na^+,K^+ -ATPase receptor purified according to Jorghensen (Jorghensen P., BBA, 1974, 356, 36) and Erdmann (Erdmann E. et al., Arzneim. Forsh., 1984, 34 (II), 1314); b) inhibition of the activity of the purified Na^+,K^+ -ATPase measured as % of hydrolysis of ^32 P-ATP in presence and in absence of the tested compound (Mall F. et al., Biochem. Pharmacol., 1984, 33, 47).
# Na^+,K^+ -ATPase [2] = molecular target: T1, Na^+,K^+ -ATPase; experiment: inhibition of the activity of the purified Na+,K+-ATPase (% hydrolysis of 32P-ATP); assay type: biochemical
# From the text: as §1
# hypertensive MHS rats = experiment: systolic blood pressure and heart rate in hypertensive MHS rats, indirect tail-cuff method, oral; assay type: in vivo, rat (MHS); settings: n=7, 20 mg/kg os daily for ten days, in METHOCEL 0.5% w/v; for SBP (systolic blood pressure): controls 174 +/- 5.5; for HR (heart rate): controls 378 +/- 11.0
# Procedure: The ability of these compounds to lower blood pressure in adult hypertensive MHS rats was tested by the following method:
# systolic blood pressure (SBP) and heart rate (HR) were measured by an indirect tail-cuff method in three-month old hypertensive MHS rats before beginning treatment (basal values). The rats were then subdivided in two groups of 7 animals each, one receiving the compound and the other, the control group, receiving only the vehicle. The compound, suspended in METHOCEL® 0.5% (w/v), for ten days, was administered daily by mouth. SBP and HR were measured daily 6 and 24 hours after the treatment. When ten-day treatment washout had been under way for at least two days, whether the treatment maintains SBP low or re-establish the basal values was verified. […]
# [3] = 3H-ouabain displacement, purified Na+,K+-ATPase, read-out: Binding ^3 H-Ouab. Displacement log. IC50 (converted)
# [4] = purified Na+,K+-ATPase, 32P-ATP hydrolysis, read-out: Inhibitory Activity log. IC50 (converted)
SMILES,"IC50 (Na^+,K^+ -ATPase [1]; [3]) [µM]","IC50 (Na^+,K^+ -ATPase [2]; [4]) [µM]",SBP (systolic blood pressure) (hypertensive MHS rats),HR (heart rate) (hypertensive MHS rats),"IC50 (Na^+,K^+ -ATPase [2]) [µM]","IC50 (Na^+,K^+ -ATPase [1]) [µM]"
"C[C@]12CC[C@H](SCC(O)CN3CCCC3)C[C@H]1CC[C@@H]1[C@@H]2CC[C@]2(C)[C@@H](C3=CC(=O)OC3)CC[C@@H]12 (stereo partly drawn) [I-e, 3β-(3-(1-Pirrolidinyl)-2-hydroxypropylthio)-5β,14α-card-20(22)-enolide]",2,3.98,,,,
"C[C@]12CC[C@H](SCCCN3CCNCC3)C[C@H]1CC[C@@H]1[C@@H]2CC[C@]2(C)[C@@H](C3=CC(=O)OC3)CC[C@@H]12 [I-c, 3β-(3-(1-Piperazinyl)propylthio)-5β,14α-card-20(22)-enolideDioxalate]",0.794,,144 +/- 6.2 mm Hg,390 +/- 12.0 beats/min.,1.58,
"C[C@]12CC[C@H]3[C@@H](CCC4=C[C@@H](SCCCN)CC[C@@]43C)[C@@H]1CC[C@@H]2C1=CC(=O)OC1 [I-f, 3β-(3-Aminopropylthio)-14α-card-4,20(22)-dienolide Oxalate]",1.26,3.16,148 +/- 5.6 mm Hg,386 +/- 9.3 beats/min.,,
"C[C@]12CC[C@H](SCCCN)C[C@@H]1CC[C@@H]1[C@@H]2CC[C@]2(C)[C@@H](C3=CC(=O)OC3)CC[C@@H]12 [I-h, 3β-(3-Aminopropylthio)-5α,14α-card-20(22)-enolide Oxalate]",,,158 +/- 5.4 mm Hg,379 +/- 10.4 beats/min.,3.98,1.58
"C[C@]12CC[C@H](O)C[C@H]1CC[C@@H]1[C@@H]2CC[C@]2(C)[C@@H](C3=CC(=O)OC3)CC[C@]12O [DIGI, digitoxigenin, reference compound]",,,173 +/- 4.0 mm Hg,380 +/- 10.0 beats/min.,,
"C[C@]12CC[C@H](SCCCN)C[C@H]1CC[C@@H]1[C@@H]2CC[C@]2(C)[C@@H](C3=CC(=O)OC3)CC[C@@H]12 [I-d, 3β-(3-Aminopropylthio)-5β,14α-card-20(22)-enolide Oxalate]",,,154 +/- 5.2 mm Hg,384 +/- 10.3 beats/min.,2,1.26
"CN(C)CCCS[C@H]1CC[C@@]2(C)[C@H](CC[C@@H]3[C@@H]2CC[C@]2(C)[C@@H](C4=CC(=O)OC4)CC[C@@H]32)C1 [I-b, 3β-(3-Dimethylaminopropylthio)-5β,14α-card-20(22)-enolide Oxalate]",1,,,,3.16,
"C[C@]12CC[C@H]3[C@@H](CC=C4C[C@@H](SCCCN)CC[C@@]43C)[C@@H]1CC[C@@H]2C1=CC(=O)OC1 [I-g, 3β-(3-Aminopropylthio)-14α-card-5,20(22)-dienolide Oxalate]",1,2,150 +/- 5.2 mm Hg,383 +/- 9.6 beats/min.,,
"C[C@]12CC[C@H](SCCN3CCCC3)C[C@H]1CC[C@@H]1[C@@H]2CC[C@]2(C)[C@@H](C3=CC(=O)OC3)CC[C@@H]12 [I-a, 3β-(2-(1-Pyrrolidinyl)ethylthio)-5β,14α-card-20(22)-enolideOxalate]",3.16,,,,5.01,
